Consider 1 compound from patent publication US20040176370A1, “3,4-Dihdro-N-[[1-(3-hydroxybutyl)-4-piperidinyl]methyl]-2H-[1,3]oxazino[3,2-a]indole-10-carboxamide as 5-HT(4) receptor antagonist” (SmithKline Beecham p.l.c., priority 1998, published 2004).

Each structure is given as a SMILES string.

Assay [1] deals with T1, 5-HT4 receptor (Cavia porcellus, UniProt O70528).
T1 construct: Longitudinal muscle-myenteric plexus (LMMP) preparations, 2-3 cm long, are obtained from the distal colon region; from tissue; host or cells: guinea-pig distal colon longitudinal muscle-myenteric plexus (LMMP)
As to the kind of experiment: 5-HT4 receptor antagonist activity: 5-HT-evoked contractions of guinea-pig distal colon LMMP preparations. It is filed as cell-based. Conditions: antagonism of 5-HT dose response curve, 45 minutes incubation. The protocol:
5-HT4 RECEPTOR ANTAGONIST ACTIVITY
Male Dunkin Hartley guinea-pigs, weighing 200-300 g are used. Longitudinal muscle-myenteric plexus (LMMP) preparations, 2-3 cm long, are obtained from the distal colon region. These are suspended under a 0.5 g load in isolated tissue baths containing Krebs Henseleit solution (NaCl 118 mM, KCl 4.7 mM KH2PO4 1.2 mM MgSO4 7H2O 1.2 mM, Glucose 11.1 mM, NaHCO3 25 mM, CaCl2 6H2O 2.5 mM) bubbled with 5% CO2 in O2, maintained at 37° C. and containing 1 uM Granisetron and 0.1 uM Methiothepin to block 5HT3 and 5HT1-like receptors respectively. 100 uM Pargyline is also added to the tissues at the start of the experiment. Tissues are left for 15 minutes to equilibrate and then exposed to 5-HT at 0.1 uM every 15 minutes until a uniform response is achieved. Following a half hour period for tissues to stabilise, non-cumulative dose response curves to 5-HT are constructed in all tissues. When base-lines have returned to normal, test compounds are added in the reservoirs of the tissue set-ups and washed in to the tissues. Tissues are incubated with the antagonists for 45 minutes after which a second non-cumulative dose response curve to 5-HT is constructed. […]

Assay [2] concerns DMPP-evoked contractions (nicotinic receptor agonist). As to the kind of experiment: Selectivity test: cholinergically-mediated contractions of guinea-pig colon evoked by the nicotinic receptor agonist DMPP. It is filed as cell-based. Conditions: guinea-pig colon LMMP, dose response curve to DMPP. The protocol: To test for selectivity of action, compounds are tested for their ability to antagonise cholinergically-mediated contractions of the guinea-pic colon, evoked by the nicotinic receptor agonist, DMPP (1,1-dimethyl-4-phenyl-piperazinium iodide). For these experiments, tissues and equipment are set up as for the above, 5HT4 receptor experiments. After sensitization, non-cumulative dose response curves are constructed to DMPP. Test compounds are incubated with the tissues as above, and a second dose response curve to DMPP created. Results are given as mean pKB±SEM values for each antagonists.

T1 sequence (O70528 whole entry): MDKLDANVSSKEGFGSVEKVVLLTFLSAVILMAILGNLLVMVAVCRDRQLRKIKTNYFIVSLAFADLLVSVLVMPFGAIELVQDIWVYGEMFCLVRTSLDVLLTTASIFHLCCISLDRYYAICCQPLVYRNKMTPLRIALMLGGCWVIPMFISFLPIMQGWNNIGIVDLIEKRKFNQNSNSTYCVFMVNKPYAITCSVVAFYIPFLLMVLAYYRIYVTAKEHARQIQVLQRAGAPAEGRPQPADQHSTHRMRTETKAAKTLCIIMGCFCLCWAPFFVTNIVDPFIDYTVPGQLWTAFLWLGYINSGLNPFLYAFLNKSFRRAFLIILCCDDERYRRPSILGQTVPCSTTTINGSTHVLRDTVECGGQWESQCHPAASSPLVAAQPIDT

With `CC(O)CCN1CCC(CNC(=O)c2c3n(c4ccccc24)CCCO3)CC1` (racemic) [compound of formula (I), 3,4dihydro-N-[[1-(3-hydroxybutyl)-4-piperidinyl]methyl]-2H-[1,3]oxazino[3,2-α]indole-10-carboxamide], in assay [1], the Kb – broadly, the equilibrium dissociation constant of an antagonist, usually derived from a functional assay – is 0.501 nM. In addition, the “effect on DMPP-evoked contractions” value in assay [2] is “did not significantly affect”.
